# Test system: MV-4-11 cells
# Assay: Gene expression microarray analysis (Affymetrix PrimeView) and GSEA
# Assay type: cell-based, human
# Set-up: RFU PODN (11730768_x_at) / Fold change /veh PODN (11730768_x_at) / RFU LINC00158 (11744669_a_at) / Fold change /veh LINC00158 (11744669_a_at) / RFU DUSP10 (11751237_a_at) / Fold change /veh DUSP10 (11751237_a_at) / RFU ID3 (11757404_x_at) / Fold change /veh ID3 (11757404_x_at) / RFU PLEKHG5 (11737974_s_at) / Fold change /veh PLEKHG5 (11737974_s_at) / RFU LRRC4B (11730491_at) / Fold change /veh LRRC4B (11730491_at) / RFU GIMAP4 (11747438_a_at) / Fold change /veh GIMAP4 (11747438_a_at) / RFU KRT8 (11758183_x_at) / Fold change /veh KRT8 (11758183_x_at) / RFU CNN1 (11734310_a_at) / Fold change /veh CNN1 (11734310_a_at) / RFU VPS37D (11726825_at) / Fold change /veh VPS37D (11726825_at) / RFU C10orf10 (11716522_x_at) / Fold change /veh C10orf10 (11716522_x_at) / RFU KIR2DL2 /// KIR2DL4 /// KIR2DL5A /// KIR2DL5B /// KIR2DS1 /// KIR2DS2 /// KIR2DS3 /// KIR2DS4 /// KIR3DL3 /// KIR3DL3 /// KIR3DS1 (11738374_at) / Fold change /veh KIR2DL2 /// KIR2DL4 /// KIR2DL5A /// KIR2DL5B /// KIR2DS1 /// KIR2DS2 /// KIR2DS3 /// KIR2DS4 /// KIR3DL3 /// KIR3DL3 /// KIR3DS1 (11738374_at) / RFU C1QL1 (11718748_at) / Fold change /veh C1QL1 (11718748_at) / RFU TMPRSS4 (11747572_a_at) / Fold change /veh TMPRSS4 (11747572_a_at) / RFU HAMP (11756126_x_at) / Fold change /veh HAMP (11756126_x_at) / RFU RNFT2 (11725882_a_at) / Fold change /veh RNFT2 (11725882_a_at) / RFU NR4A2 (11747474_a_at) / Fold change /veh NR4A2 (11747474_a_at) / RFU ABCC12 (11746883_a_at) / Fold change /veh ABCC12 (11746883_a_at) / RFU TMEM136 (11760407_x_at) / Fold change /veh TMEM136 (11760407_x_at) / RFU CLDN22 /// WWC2 (11732394_at) / Fold change /veh CLDN22 /// WWC2 (11732394_at) / RFU HLA-DPB1 (11760878_x_at) / Fold change /veh HLA-DPB1 (11760878_x_at) / RFU SPINT1 (11716480_a_at) / Fold change /veh SPINT1 (11716480_a_at) / RFU GAP43 (11754022_s_at) / Fold change /veh GAP43 (11754022_s_at) / RFU A4GNT (11735810_at) / Fold change /veh A4GNT (11735810_at) / RFU PRB3 (11715151_x_at) / Fold change /veh PRB3 (11715151_x_at) / RFU TUBB4B (11761932_at) / Fold change /veh TUBB4B (11761932_at) / RFU CAPN14 (11732068_a_at) / Fold change /veh CAPN14 (11732068_a_at) / RFU TMCC2 (11721928_a_at) / Fold change /veh TMCC2 (11721928_a_at) / RFU IRGQ (11745062_a_at) / Fold change /veh IRGQ (11745062_a_at) / RFU FAM174B (11720279_a_at) / Fold change /veh FAM174B (11720279_a_at) / RFU TMPRSS4 (11748680_a_at) / Fold change /veh TMPRSS4 (11748680_a_at) / RFU FAM212B (11763350_a_at) / Fold change /veh FAM212B (11763350_a_at) / RFU PLEKHG5 (11743358_a_at) / Fold change /veh PLEKHG5 (11743358_a_at) / RFU ZSCAN30 (11745921_a_at) / Fold change /veh ZSCAN30 (11745921_a_at) / RFU CMKLR1 (11741424_a_at) / Fold change /veh CMKLR1 (11741424_a_at) / RFU LOC101060620 /// MAPK8IP1 (11723275_at) / Fold change /veh LOC101060620 /// MAPK8IP1 (11723275_at) / RFU SPTSSB (11747773_x_at) / Fold change /veh SPTSSB (11747773_x_at) / RFU PRSS12 (11739890_at) / Fold change /veh PRSS12 (11739890_at) / RFU BIN1 (11741810_x_at) / Fold change /veh BIN1 (11741810_x_at) / RFU WNT11 (11732464_a_at) / Fold change /veh WNT11 (11732464_a_at) / RFU C10orf10 (11716521_a_at) / Fold change /veh C10orf10 (11716521_a_at) / RFU C5orf56 (11738089_at) / Fold change /veh C5orf56 (11738089_at) / RFU CYB561 (11721691_x_at) / Fold change /veh CYB561 (11721691_x_at) / RFU ANKRD19P (11752326_a_at) / Fold change /veh ANKRD19P (11752326_a_at) / RFU OR2T12 /// OR2T33 /// OR2T8 (11738714_s_at) / Fold change /veh OR2T12 /// OR2T33 /// OR2T8 (11738714_s_at) / RFU VCAN (11748164_a_at) / Fold change /veh VCAN (11748164_a_at) / RFU JSRP1 (11732532_at) / Fold change /veh JSRP1 (11732532_at) / RFU KRTAP10-11 (11738290_x_at) / Fold change /veh KRTAP10-11 (11738290_x_at) / RFU MYO3A (11730013_a_at) / Fold change /veh MYO3A (11730013_a_at) / RFU EBF3 (11725865_a_at) / Fold change /veh EBF3 (11725865_a_at) / RFU CAMK2N1 (11719241_x_at) / Fold change /veh CAMK2N1 (11719241_x_at) / RFU C5orf56 (11738088_a_at) / Fold change /veh C5orf56 (11738088_a_at) / RFU OLFML3 (11715873_a_at) / Fold change /veh OLFML3 (11715873_a_at) / RFU LOC100653217 /// NTM (11731650_a_at) / Fold change /veh LOC100653217 /// NTM (11731650_a_at) / RFU MAPK11 (11762145_a_at) / Fold change /veh MAPK11 (11762145_a_at) / RFU FIZ1 (11724087_x_at) / Fold change /veh FIZ1 (11724087_x_at) / RFU OASL (11726364_x_at) / Fold change /veh OASL (11726364_x_at) / RFU SOX15 (11748057_x_at) / Fold change /veh SOX15 (11748057_x_at) / RFU CD79A (11719716_a_at) / Fold change /veh CD79A (11719716_a_at) / RFU HIST1H1D (11736915_at) / Fold change /veh HIST1H1D (11736915_at) / RFU CASKIN2 (11723855_a_at) / Fold change /veh CASKIN2 (11723855_a_at) / RFU LOC730098 (11760151_x_at) / Fold change /veh LOC730098 (11760151_x_at) / RFU OR4N2 (11742367_at) / Fold change /veh OR4N2 (11742367_at) / RFU PRRT2 (11749266_a_at) / Fold change /veh PRRT2 (11749266_a_at) / RFU SNX32 (11753110_a_at) / Fold change /veh SNX32 (11753110_a_at) / RFU CDHR5 (11726645_a_at) / Fold change /veh CDHR5 (11726645_a_at) / RFU RCAN1 (11760418_a_at) / Fold change /veh RCAN1 (11760418_a_at) / RFU FAM167A (11723789_a_at) / Fold change /veh FAM167A (11723789_a_at) / RFU FAM26E (11764081_at) / Fold change /veh FAM26E (11764081_at) / RFU ISYNA1 (11749810_s_at) / Fold change /veh ISYNA1 (11749810_s_at) / RFU ACY1 (11761880_at) / Fold change /veh ACY1 (11761880_at) / RFU 11764098_at / Fold change /veh 11764098_at / RFU SAMD14 (11745864_x_at) / Fold change /veh SAMD14 (11745864_x_at) / RFU NPB (11741838_a_at) / Fold change /veh NPB (11741838_a_at) / RFU TMPRSS6 (11731388_a_at) / Fold change /veh TMPRSS6 (11731388_a_at) / RFU KRTAP10-2 (11738614_at) / Fold change /veh KRTAP10-2 (11738614_at) / RFU ARHGAP8 /// PRR5-ARHGAP8 (11727945_x_at) / Fold change /veh ARHGAP8 /// PRR5-ARHGAP8 (11727945_x_at) / RFU KRTAP5-7 /// NADSYN1 (11734609_at) / Fold change /veh KRTAP5-7 /// NADSYN1 (11734609_at) / RFU RASL12 (11751679_a_at) / Fold change /veh RASL12 (11751679_a_at) / RFU CDKN2B (11736163_a_at) / Fold change /veh CDKN2B (11736163_a_at) / RFU PRF1 (11729649_at) / Fold change /veh PRF1 (11729649_at) / RFU, ZNF638 /// ZNF638-IT1 / Fold change vs veh, ZNF638 /// ZNF638-IT1 / RFU, PANK3 / Fold change vs veh, PANK3 / RFU, SH3YL1 / Fold change vs veh, SH3YL1 / RFU, ZEB2 / Fold change vs veh, ZEB2 / RFU, NRIP1 / Fold change vs veh, NRIP1 / RFU, PTTG1IP / Fold change vs veh, PTTG1IP / RFU, CAPN2 / Fold change vs veh, CAPN2 / RFU, MED14 / Fold change vs veh, MED14 / RFU, SNORA58 / Fold change vs veh, SNORA58 / RFU, C1orf63 / Fold change vs veh, C1orf63 / RFU, LRRFIP1 / Fold change vs veh, LRRFIP1 / RFU, NDUFAF7 / Fold change vs veh, NDUFAF7 / RFU, SLC12A2 / Fold change vs veh, SLC12A2 / RFU, IBTK / Fold change vs veh, IBTK / RFU, ESF1 / Fold change vs veh, ESF1 / Fold change vs veh, TMEM50B / RFU, TAOK1 / Fold change vs veh, TAOK1 / RFU, ACBD3 / Fold change vs veh, ACBD3 / RFU, TMA16 / Fold change vs veh, TMA16 / RFU, RWDD3 / Fold change vs veh, RWDD3 / RFU, BCAT1 / Fold change vs veh, BCAT1 / RFU, EDEM3 / Fold change vs veh, EDEM3 / RFU, TMEM33 / Fold change vs veh, TMEM33 / RFU, WDR75 / Fold change vs veh, WDR75 / RFU, AHCTF1 / Fold change vs veh, AHCTF1 / RFU, TFRC / Fold change vs veh, TFRC / RFU, ZDHHC17 / Fold change vs veh, ZDHHC17 / RFU, NOM1 / Fold change vs veh, NOM1 / RFU, ARL8B / Fold change vs veh, ARL8B / RFU, ZBTB11 / Fold change vs veh, ZBTB11 / RFU, TAMM41 / Fold change vs veh, TAMM41 / RFU, KIAA1704 /// LOC100996395 / Fold change vs veh, KIAA1704 /// LOC100996395 / RFU, ING1 / Fold change vs veh, ING1 / RFU, TRMT61B / Fold change vs veh, TRMT61B / RFU, FUBP3 / Fold change vs veh, FUBP3 / RFU, TP53 / Fold change vs veh, TP53 / RFU, TNKS2 / Fold change vs veh, TNKS2 / RFU, ZFP14 / Fold change vs veh, ZFP14 / RFU, ACTR2 / Fold change vs veh, ACTR2 / RFU, PPP3R1 / Fold change vs veh, PPP3R1 / RFU, PIK3R1 / Fold change vs veh, PIK3R1 / RFU, HNRNPA1 / Fold change vs veh, HNRNPA1 / RFU, RNF170 / Fold change vs veh, RNF170 / RFU, ZNF28 / Fold change vs veh, ZNF28 / RFU, RNGTT / Fold change vs veh, RNGTT / RFU, OGT / Fold change vs veh, OGT / RFU, BRD1 / Fold change vs veh, BRD1 / RFU, MARS / Fold change vs veh, MARS / RFU, ZNF655 / Fold change vs veh, ZNF655 / RFU, FAHD1 / Fold change vs veh, FAHD1 / RFU, BDP1 / Fold change vs veh, BDP1 / RFU, LRRCC1 / Fold change vs veh, LRRCC1 / RFU, ARID1A / Fold change vs veh, ARID1A / RFU, ZNF146 / Fold change vs veh, ZNF146 / RFU, ZNF330 / Fold change vs veh, ZNF330 / RFU, GPN3 / Fold change vs veh, GPN3 / RFU, C9orf123 / Fold change vs veh, C9orf123 / RFU, N4BP2L2 / Fold change vs veh, N4BP2L2 / RFU, ARFIP1 / Fold change vs veh, ARFIP1 / RFU, FAM179B / Fold change vs veh, FAM179B / RFU, BCL10 / Fold change vs veh, BCL10 / RFU, UHRF1BP1L / Fold change vs veh, UHRF1BP1L / RFU, BET1 / Fold change vs veh, BET1 / RFU, CNOT2 / Fold change vs veh, CNOT2 / RFU, ZNF268 / Fold change vs veh, ZNF268 / Fold change vs veh, ZNF507 / RFU, DGCR2 / Fold change vs veh, DGCR2 / RFU, WDSUB1 / Fold change vs veh, WDSUB1 / Fold change vs veh, HSP90B1 /// MIR3652 / RFU, ADSS / Fold change vs veh, ADSS / RFU, GK / Fold change vs veh, GK / RFU, ZNF148 / Fold change vs veh, ZNF148 / RFU, TAF9 / Fold change vs veh, TAF9 / RFU, SLC1A5 / Fold change vs veh, SLC1A5 / RFU, SLMO2 / Fold change vs veh, SLMO2 / RFU, ABCC4 / Fold change vs veh, ABCC4 / RFU, LOC101060439 /// RAP1B / Fold change vs veh, LOC101060439 /// RAP1B / RFU, RFX7 / Fold change vs veh, RFX7 / RFU, GTPBP10 / Fold change vs veh, GTPBP10 / RFU, CNEP1R1 / Fold change vs veh, CNEP1R1 / RFU, BIVM-ERCC5 /// ERCC5 / Fold change vs veh, BIVM-ERCC5 /// ERCC5 / RFU, ILF3 / Fold change vs veh, ILF3 / RFU 11762660_at / Fold change /veh 11762660_at / RFU VCAN (11757783_s_at) / Fold change /veh VCAN (11757783_s_at) / RFU DDX43 (11728927_at) / Fold change /veh DDX43 (11728927_at) / RFU KRT8 (11758188_x_at) / Fold change /veh KRT8 (11758188_x_at) / RFU NKD1 (11759106_at) / Fold change /veh NKD1 (11759106_at) / RFU SRD5A1 (11742802_a_at) / Fold change /veh SRD5A1 (11742802_a_at) / RFU TPSAB1 /// TPSB2 (11721975_s_at) / Fold change /veh TPSAB1 /// TPSB2 (11721975_s_at) / RFU GSTM3 (11746129_a_at) / Fold change /veh GSTM3 (11746129_a_at) / RFU IL23R (11737362_x_at) / Fold change /veh IL23R (11737362_x_at) / RFU TMEM51 (11727254_a_at) / Fold change /veh TMEM51 (11727254_a_at) / RFU PIWIL2 (11732686_x_at) / Fold change /veh PIWIL2 (11732686_x_at) / RFU ORM1 (11744905_x_at) / Fold change /veh ORM1 (11744905_x_at) / RFU CCDC152 (11743942_at) / Fold change /veh CCDC152 (11743942_at) / RFU ECM1 (11717891_a_at) / Fold change /veh ECM1 (11717891_a_at) / RFU IL23R (11748794_a_at) / Fold change /veh IL23R (11748794_a_at) / RFU TNFAIP8L3 (11732012_x_at) / Fold change /veh TNFAIP8L3 (11732012_x_at) / RFU MBOAT4 (11741988_at) / Fold change /veh MBOAT4 (11741988_at) / RFU 11764193_at / Fold change /veh 11764193_at / RFU TMEM53 (11763286_at) / Fold change /veh TMEM53 (11763286_at) / RFU MAGEB2 (11727129_at) / Fold change /veh MAGEB2 (11727129_at) / RFU TMEM200A (11744735_a_at) / Fold change /veh TMEM200A (11744735_a_at) / RFU CCDC152 (11751479_a_at) / Fold change /veh CCDC152 (11751479_a_at) / RFU FAM211A (11726209_a_at) / Fold change /veh FAM211A (11726209_a_at) / RFU RGS16 (11746705_a_at) / Fold change /veh RGS16 (11746705_a_at) / RFU VCAN (11755009_s_at) / Fold change /veh VCAN (11755009_s_at) / RFU RHOB (11743442_s_at) / Fold change /veh RHOB (11743442_s_at) / RFU RGS16 (11720943_a_at) / Fold change /veh RGS16 (11720943_a_at) / RFU RGS16 (11720944_at) / Fold change /veh RGS16 (11720944_at) / RFU, VPS4B / Fold change vs veh, VPS4B / RFU, CREB1 / Fold change vs veh, CREB1 / RFU, DNAJC13 / Fold change vs veh, DNAJC13 / RFU, GNAQ / Fold change vs veh, GNAQ / RFU, CDK5R1 / Fold change vs veh, CDK5R1 / RFU, ZRANB3 / Fold change vs veh, ZRANB3 / RFU, CUL4A / Fold change vs veh, CUL4A / RFU, CCNY / Fold change vs veh, CCNY / RFU, UFL1 / Fold change vs veh, UFL1 / RFU, COG3 / Fold change vs veh, COG3 / RFU, DIAPH2 / Fold change vs veh, DIAPH2 / RFU, SKA2 / Fold change vs veh, SKA2 / RFU, AFF3 / Fold change vs veh, AFF3 / RFU, LMF1 / Fold change vs veh, LMF1 / RFU, IPO11 / Fold change vs veh, IPO11 / RFU, DFFB / Fold change vs veh, DFFB / RFU, FOXP1 / Fold change vs veh, FOXP1 / RFU, CARD8 / Fold change vs veh, CARD8 / RFU, STRN3 / Fold change vs veh, STRN3 / RFU, ADK / Fold change vs veh, ADK / RFU, RASSF2 / Fold change vs veh, RASSF2 / RFU, WIPF1 / Fold change vs veh, WIPF1 / RFU, LARP1B / Fold change vs veh, LARP1B / RFU, RASA1 / Fold change vs veh, RASA1 / RFU, RB1 / Fold change vs veh, RB1 / RFU, PPFIA1 / Fold change vs veh, PPFIA1 / RFU, MAT2A / Fold change vs veh, MAT2A / RFU, CCT5 / Fold change vs veh, CCT5 / RFU, WDR92 / Fold change vs veh, WDR92 / RFU, CUX1 / Fold change vs veh, CUX1 / RFU, TTC7A / Fold change vs veh, TTC7A / RFU, TMEM135 / Fold change vs veh, TMEM135 / RFU, DEPTOR / Fold change vs veh, DEPTOR / RFU, CPM / Fold change vs veh, CPM / RFU, DNAJB6 / Fold change vs veh, DNAJB6 / RFU, CACNA2D3 / Fold change vs veh, CACNA2D3 / RFU, DTX4 / Fold change vs veh, DTX4 / RFU, TFCP2 / Fold change vs veh, TFCP2 / RFU, GMCL1 /// GMCL1P1 / Fold change vs veh, GMCL1 /// GMCL1P1 / RFU, AEBP2 / Fold change vs veh, AEBP2 / RFU, SNHG1 /// SNORD22 /// SNORD25 /// SNORD26 /// SNORD27 /// SNORD28 /// SNORD29 /// SNORD31 / Fold change vs veh, SNHG1 /// SNORD22 /// SNORD25 /// SNORD26 /// SNORD27 /// SNORD28 /// SNORD29 /// SNORD31 / Fold change (Aza/veh), C12orf56 (ProbeSet 11735607_a_at) / Fold change (ACY-1035/veh), C12orf56 (ProbeSet 11735607_a_at) / Fold change (Aza/veh), FGFR1OP (ProbeSet 11751329_s_at) / Fold change (ACY-1035/veh), FGFR1OP (ProbeSet 11751329_s_at) / Fold change (Aza/veh), VPS36 (ProbeSet 11739960_a_at) / Fold change (ACY-1035/veh), VPS36 (ProbeSet 11739960_a_at) / RFU SYPL1 (11715823_x_at) / Fold change /veh SYPL1 (11715823_x_at) / RFU IGFBP7 (11715501_s_at) / Fold change /veh IGFBP7 (11715501_s_at) / RFU REEP3 (11722064_at) / Fold change /veh REEP3 (11722064_at) / RFU IGLL1 (11728026_x_at) / Fold change /veh IGLL1 (11728026_x_at): dose or concentration left out as unconfirmed
# Conditions: ProbeSet 11733831_s_at; LIST D
smiles,measurement,value
Nc1ccc(-c2cccs2)cc1NC(=O)c1ccc2c(c1)cc(C1CC1)n2CCN1CCOCC1 [ACY-1035],"RFU, GMCL1 /// GMCL1P1",34.22 RFU
